Measurements as given in publication PMC10447463, “Data-mining unveils structure–property–activity correlation of viral infectivity enhancing self-assembling peptides” (Nature Communications, 2023).
Where two headings read alike, the source gives them in different places.

How the values were obtained:
Format in all cases: physicochemical
[1] = Conversion rate (CR) assay with fluorescamine; design: key to CR: % = 100−100×filtrate/original fluorescence intensity
Method in brief: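 Measurements on freeze-dried PNF powders used a diamond ATR element, 64 scans each, with β-sheet fraction derived as previously reported. CR reflects loss of fluorescamine-reactive monomer after 3 kDa ultrafiltration, averaged over triplicates.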

[2] = Aggregate analysis by widefield fluorescence microscopy
Method in brief: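 Peptides diluted from 10 mg/mL DMSO stock to 1 mg/mL in PBS and aged 1 d at RT were diluted to 0.1 mg/mL with 50 µM ThT, then imaged with a 10x objective in fluorescence (ex 480/40, em 527/30 nm) and brightfield. Particles >10 µm^2 were counted by automated object counting over ≥3 images.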

[3] = Turbidity, derived count rate of scattered light
[4] = Fig S8 panels A, C, 3 fields of 1330 µm x 1330 µm
[5] = Fig S8 panels B, D, average aggregate area, 3 fields of 1330 µm x 1330 µm
[6] = Fig S8 panels B, D, median aggregate area, 3 fields of 1330 µm x 1330 µm
[7] = Fig S8 panels B, D, 3 fields of 1330 µm x 1330 µm
[8] = Fig S8 panels B, D, widefield fluorescence microscopy, 3 fields of 1330 µm x 1330 µm

| Substance | Conversion Rate / % ([1]; fluorescamine assay) | Avg Area in 3 *(1330 µm *1330 µm) ([2]; Fig S8 panels A, C) | Log 10 Number of aggregates in 3 * (1330 µm *1330 µm) ([2]; Fig S8 panels A, C) | Median Area in 3 * (1330 µm *1330 µm) ([2]; Fig S8 panels A, C) | log Avg Area in 3 * ( (1330 µm *1330 µm)) ([2]; Fig S8 panels A, C) | log Median Area in 3 * ( (1330 µm *1330 µm)) ([2]; Fig S8 panels A, C) | log Total Area of all particles in 3 * (1330 µm *1330 µm) ([2]; Fig S8 panels A, C) | Number of aggregates in 3 * (1330 µm *1330 µm) [2, 4] | Avg Area in 3 *(1330 µm *1330 µm) [2, 5] | Median Area in 3 * (1330 µm *1330 µm) [2, 6] | Total Area of all particles in 3 * (1330 µm *1330 µm) [2, 7] | Number of aggregates in 3 * (1330 µm *1330 µm) [2, 8] | Conversion Rate / % [1] | CR / % ([1]; Fig. S7 panel B, conversion rate, fluorescamine assay) | CR ([1]; conversion rate, fluorescamine assay) | Count Rate ([3]; derived count rate of scattered light (turbidity)) | Log10 Count Rate ([3]; turbidity, derived count rate of scattered light, log10, data of Figure 2D) |
| --- | --- | --- | --- | --- | --- | --- | --- | --- | --- | --- | --- | --- | --- | --- | --- | --- | --- |
| CHLHLQL [CN9] | 96.58% | 330.1 | 1.5563 | 35.7 | 2.5187 | 1.553 | 4.075 | 36 | 330.1 | 35.7 | 11885.21533 | 36 |  |  |  |  |  |
| CKAKAQANMWQ [BL8] | 92.9% | 857.7 | 0.8016 | 479.9 | 2.933 | 2.681 | 3.735 | 6.333 | 857.7 | 479.9 | 5432 | 6.333 | 92.9% |  |  |  |  |
| CKFKFQF [BL4] | 96.11% | 86.55 | 2.108 | 22.111 | 1.937 | 1.345 | 4.0456 | 128.3 | 86.55 | 22.111 | 11106.98933 | 128.3 | 96.11% |  |  |  |  |
| CKFKFQFNM [BL3] | 99.03% | 19.89 | 2.2313 | 11.55 | 1.299 | 1.063 | 3.53 | 170.3 | 19.89 | 11.55 | 3388 | 170.3 | 99.03% |  |  |  |  |
| CKFKQFF [CK15] | 90.05% | 2578 | 0.7533 | 2243 | 3.411 | 3.351 | 4.165 | 5.667 | 2578 | 2243 | 14606.95267 | 5.667 | 90.05% |  |  |  |  |
| CKIKIQINMWQ |  |  |  |  |  |  |  |  |  |  |  |  |  | 89.1% | 89.15 | 1881 | 3.274 |
| CSISIQI [TM141] | 76.63% | 112.5 | 2.091 | 18.872 | 2.051 | 1.276 | 4.142 | 123.3 | 112.5 | 18.872 | 13871.26567 | 123.3 |  |  |  |  |  |
| KFKFQFNMWQ [JG4] | 98.32% | 599.2 | 1.806 | 25.773 | 2.778 | 1.411 | 4.584 | 64 | 599.2 | 25.773 | 38349.21133 | 64 | 98.32% |  |  |  |  |
| KIKIQIC [TM112 / CN11] | 51.55% | 23.45 | 1.912 | 12.96 | 1.37 | 1.1125 | 3.282 | 81.67 | 23.45 | 12.96 | 1915.068 | 81.67 |  |  |  |  |  |
| KIKQIINMWQ [JG2] | 94.17% | 398.2 | 1.591 | 199.4905 | 2.6 | 2.3 | 4.191 | 39 | 398.2 | 199.4905 | 15530.404 | 39 | 94.17% |  |  |  |  |
| QCKFKQFFNM [CK11] | 98.67% |  |  |  |  |  |  |  |  |  |  |  | 98.67% |  |  |  |  |
| QCKFKQFFNMWQ [CK10] | 98.72% |  |  |  |  |  |  |  | 30.56 | 15.07 | 55430.97933 | 1814 | 98.72% |  |  |  |  |
| QCKIKIQINM [CK2] | 89.7% |  |  |  |  |  |  |  |  |  |  |  | 89.7% |  |  |  |  |
| QCKIKIQINMWQ [EF-C opt] | 93.68% | 21.24 | 2.6 | 11.97 | 1.327 | 1.078 | 3.927 | 398 | 21.24 | 11.97 | 8454 | 398 | 93.68% |  |  |  |  |
| RGDCKFKFQF [TM64/ CN15] | 85.47% |  |  |  |  |  |  |  |  |  |  |  |  |  |  |  |  |
